Some test systems named below: SW-620 colon; NCI/ADR-RES ovarian; NCI-H460 lung; EKVX NSCLC; K-562 leukemia; SK-OV-3 ovarian; MDA-N; HCC-2998 colon; NCI-H23 lung; NCI-H522 lung; PC-3 prostate; HCT-116 colon; IGROV1 ovarian; SK-MEL-2 melanoma; COLO 205 colon; MOLT-4 leukemia; BT-549 breast; OVCAR-5 ovarian; RPMI-8226 leukemia.
Holding throughout (experiment): NCI-60 cell line screen, 48 h

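Cells were grown in 96-well plates and exposed to each compound for 48 hours at five concentrations; endpoints were interpolated linearly between bracketing concentrations, or set to the highest concentration if not reached. TGI: concentration producing complete growth inhibition.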

For the compound `COc1cc(-c2cc(-c3ccccc3)nc(-c3c(OC)ccc4c(C)cc(=O)oc34)c2)cc(OC)c1OC`, the TGI in the assay on SW-620 colon, with NCI/ADR-RES ovarian, with NCI-H460 lung, in the assay with EKVX NSCLC, in the assay with K-562 leukemia and with SK-OV-3 ovarian was greater than 100 µM throughout. For the same compound, the TGI with MDA-N, in the assay on HCC-2998 colon, in the assay with NCI-H23 lung, in the assay on NCI-H522 lung, in the assay with PC-3 prostate and in the assay with HCT-116 colon was greater than 100 µM throughout. The TGI in the assay on IGROV1 ovarian, with SK-MEL-2 melanoma, with COLO 205 colon, with MOLT-4 leukemia and in the assay with BT-549 breast was greater than 100 µM throughout.

Take `COC(=O)c1sc(=S)sc1SCc1ccc(CSc2sc(=S)sc2C(=O)OC)cc1`: the TGI in the assay on SW-620 colon, with NCI/ADR-RES ovarian, in the assay with NCI-H460 lung, in the assay with EKVX NSCLC, in the assay on OVCAR-5 ovarian and with K-562 leukemia was greater than 100 µM in each case. For the same compound, the TGI with SK-OV-3 ovarian, in the assay on MDA-N, in the assay with HCC-2998 colon, with NCI-H23 lung, in the assay with NCI-H522 lung and in the assay with PC-3 prostate was greater than 100 µM throughout. The TGI with HCT-116 colon, in the assay on IGROV1 ovarian, in the assay with SK-MEL-2 melanoma, with COLO 205 colon, in the assay on MOLT-4 leukemia and in the assay on BT-549 breast was greater than 100 µM each time.

On to `Cc1nn(C(=O)Cc2ccccc2)c2c1C(c1ccc(O)cc1O)SC(N)=N2` (stereo not drawn), for which the TGI with SW-620 colon, in the assay with NCI-H460 lung, in the assay with RPMI-8226 leukemia, with EKVX NSCLC, in the assay with SK-OV-3 ovarian and with MDA-N was greater than 100 µM in each case. Besides, the TGI in the assay on HCC-2998 colon, with NCI-H23 lung, in the assay on NCI-H522 lung, with PC-3 prostate, in the assay on HCT-116 colon and with IGROV1 ovarian was greater than 100 µM each time. The TGI with COLO 205 colon, with MOLT-4 leukemia and in the assay with BT-549 breast was greater than 100 µM each time.

As to `CCN(CC)/C(Sc1ccccc1)=C(\C(Cl)=C(Cl)Cl)[N+](=O)[O-]`, the TGI was 40.3 µM in the assay on SW-620 colon; greater than 100 µM in the assay on NCI/ADR-RES ovarian; 50.3 µM with NCI-H460 lung; 34.7 µM in the assay on EKVX NSCLC; 31.9 µM with K-562 leukemia; 73.1 µM in the assay on SK-OV-3 ovarian. The TGI amounted to 40.2 µM with MDA-N; 34.3 µM in the assay on HCC-2998 colon; 36.1 µM in the assay on NCI-H23 lung; 33.3 µM with NCI-H522 lung; 33.3 µM with PC-3 prostate; 32.8 µM in the assay on HCT-116 colon. The TGI turned out to be 43.7 µM in the assay on IGROV1 ovarian, 31.5 µM with COLO 205 colon, 31.3 µM in the assay with MOLT-4 leukemia and 38.1 µM in the assay with BT-549 breast.

Turning to `O=c1c2nc3ccccc3c(=O)n2ncn1-c1ccccc1Cl`, the TGI with SW-620 colon, in the assay with NCI-H460 lung, in the assay with RPMI-8226 leukemia, in the assay with EKVX NSCLC, with OVCAR-5 ovarian and in the assay on K-562 leukemia was greater than 100 µM in each case. In addition, the TGI in the assay with SK-OV-3 ovarian, with MDA-N, in the assay on HCC-2998 colon, with NCI-H23 lung, in the assay with NCI-H522 lung and in the assay on PC-3 prostate was greater than 100 µM in each case. Besides, the TGI in the assay on HCT-116 colon, in the assay on IGROV1 ovarian, in the assay on SK-MEL-2 melanoma, in the assay on COLO 205 colon and with BT-549 breast was greater than 100 µM throughout.

As for `CCOC(=O)c1c(N)sc2c1C(C)(C(=O)OCC)CC2` (stereo not drawn), the TGI with SW-620 colon, in the assay on NCI-H460 lung, with RPMI-8226 leukemia, in the assay on EKVX NSCLC, in the assay on OVCAR-5 ovarian and with K-562 leukemia was greater than 100 µM each time. The TGI in the assay with MDA-N, in the assay on HCC-2998 colon, in the assay with NCI-H23 lung, in the assay on PC-3 prostate, with HCT-116 colon and in the assay with IGROV1 ovarian was greater than 100 µM throughout. In addition, the TGI in the assay with SK-MEL-2 melanoma, in the assay on COLO 205 colon, in the assay on MOLT-4 leukemia and in the assay with BT-549 breast was greater than 100 µM in each case.

Take `O=C(c1cccs1)N(C(=S)OC12CC3CC(CC(C3)C1)C2)c1ccccc1`: the TGI in the assay with SW-620 colon is greater than 100 µM; in the assay with NCI/ADR-RES ovarian it was greater than 100 µM; in the assay on NCI-H460 lung, greater than 100 µM; in the assay with EKVX NSCLC it was 55.6 µM; in the assay on OVCAR-5 ovarian, greater than 100 µM; with K-562 leukemia, greater than 100 µM. In addition, the TGI in the assay with SK-OV-3 ovarian is greater than 100 µM; in the assay on MDA-N, greater than 100 µM; in the assay on HCC-2998 colon it was greater than 100 µM; in the assay on NCI-H23 lung, greater than 100 µM; in the assay on NCI-H522 lung it was 46 µM; in the assay with PC-3 prostate, 88.5 µM. The TGI in the assay on HCT-116 colon was 59.3 µM; in the assay with SK-MEL-2 melanoma, 39.3 µM; in the assay with COLO 205 colon, 33.8 µM; in the assay on MOLT-4 leukemia, greater than 100 µM; with BT-549 breast, greater than 100 µM.

With `CC(C)(C)c1cc(C2=NNC(c3ccccc3)C2)cc(C(C)(C)C)c1O` (stereo not drawn), the TGI in the assay on SW-620 colon was determined as 34.3 µM; with NCI/ADR-RES ovarian, 38.7 µM; in the assay with NCI-H460 lung, 29.7 µM; in the assay with RPMI-8226 leukemia, 43.8 µM; with EKVX NSCLC it was 36.6 µM; in the assay with OVCAR-5 ovarian, 40.9 µM. For the same compound, the TGI in the assay with SK-OV-3 ovarian amounted to 38.2 µM; in the assay with MDA-N, 28.5 µM; in the assay on NCI-H23 lung, 33.7 µM; in the assay with NCI-H522 lung it was 28.4 µM; with PC-3 prostate, 27.7 µM; with HCT-116 colon, 28.3 µM. Further, the TGI with IGROV1 ovarian is 30.2 µM; with SK-MEL-2 melanoma, 29.3 µM; with COLO 205 colon it was 31.7 µM; in the assay on MOLT-4 leukemia, greater than 100 µM; with BT-549 breast it was 32 µM.

Source of the values: PubChem BioAssay (NCI).
